Measured values taken from patent publication US6849405B2, “Translation enhancer element of the human amyloid precursor protein gene” (The Brigham and Women's Hospital, Inc., priority 1997, dated 2005).

Legend:
[1] = tested on: ferritin-H subunit synthesis in astrocytoma (U373MG) cells; assay: Ferritin-H subunit synthesis, astrocytoma cells; format: cell-based, human; conditions: 0.5 ng/ml, 16 hrs
Description: (§1) Primary human astrocytes were prepared by trypsinization of human fetal brain tissue by a previously described method (Das, et al., Neuron 14; 447 (1995)). Cells were seeded onto poly-L-lysine (10 μg/ml) coated plates and were grown to 70% confluence in DMEM medium, (low glucose) supplemented with 10% fetal bovine serum. In order to eliminate microglia, the cultures were treated with 5 mM H-Leu-O-methylester (Guilian, J. Neurosci. Res. 18:155 (1987)). For immunofluorescence, cells were replated at a density of 100,000 cells per 60-mm petri dish on poly-L-lysine coated glass coverslips and grown for 24 hours in 0.5 ml of medium to allow the cells to attach. The presence of glial fibrillary acidic protein (GFAP) was detected by immunofluorescent staining of formaldehyde fixed cells using a 1:10 dilution of rabbit IgG1 antibody specific for human GFAP. Primary GFAP-specific antibody was added to the coverslips for 30 minutes at room temperature in phosphate buffered saline and 10% goat serum. The secondary antibodies used were goat anti-rabbit IgG conjugated to fluorescein isothiocyanate at a dilution of 1:100 (Boehringer). Fluorescence microscopy scored the cells used in the metabolic experiments as 95% pure astrocytes. […] The U373MG astrocytoma cell line was cultured on 100 mm uncoated dishes to 60-80% confluence in DMEM medium supplemented with 10% fetal bovine serum. […]

APP-mRNA [2] = assay: Northern blot of APP-mRNA, primary astrocytes; format: cell-based, human
Description: (§2) Total RNA (10 μg) was extracted from primary astrocytes and astrocytoma cells with a RNA-STAT kit (Tel-Test). RNA samples were denatured in 50% formamide/2.2 M formaldehyde/20 mM MOPS/5 mM sodium acetate/0.5 mM EDTA, pH 7.4, at 60° C. for 10 minutes, electrophoresed on 1.0% agarose-formaldehyde gels, blotted onto Hybond-N filters and immobilized by UV crosslinking and heating filters to 80° C. Filters were prehybridized for 3 hours and hybridized overnight in a solution consisting of 50% formamide, […] denatured salmon sperm DNA, 5×SSC, 0.1% sodium dodecyl sulfate and 5×Denhardt's solution. Following hybridization, filters were washed twice for a total of 1 hour in 2×SSC/0.2% sodium dodecyl sulfate at room temperature and twice each for a total of 1 hour in 0.5×SSC/0.1% sodium dodecyl sulfate at 55° C. Equal loading was verified by ethidium bromide staining, non-specific hybridization of the ACT probe to the 28S rRNA, and by standardized hybridization to the GAPDH cDNA probe as an internal standard. The APP cDNA probe corresponded to the unique internal 1 kb fragment gel purified from the 3 kb APP cDNA (Kang et al. Nature 325: 733 (1987)), the ACT cRNA probe to a PstI/SacI fragment (536-943) in the human ACT cDNA (Chandra, et al., Biochemistry 22: 5055 (1983)) and the GAPDH probe to the human GAPDH gene (Tokunaga, et al., Cancer Res. 47: 5616 (1987)).

[3] = tested on: L-ferritin synthesis in astrocytoma (U373MG) cells; assay: L-ferritin synthesis, astrocytoma cells; format: cell-based, human; conditions: 0.5 ng/ml, 16 hrs
Description: as §1

[4] = tested on: APP protein synthesis in primary human fetal astrocytes; assay: Intracellular APP protein synthesis, [35S]-methionine pulse labeling and immunoprecipitation, primary astrocytes; format: cell-based; conditions: 0.5 ng/ml, 16 hours, 30 minute [35S]-methionine labeling
Description: Primary human astrocytes were prepared by trypsinization of human fetal brain tissue by a previously described method (Das, et al., Neuron 14; 447 (1995)). Cells were seeded onto poly-L-lysine (10 μg/ml) coated plates and were grown to 70% confluence in DMEM medium, (low glucose) supplemented with 10% fetal bovine serum. In order to eliminate microglia, the cultures were treated with 5 mM H-Leu-O-methylester (Guilian, J. Neurosci. Res. 18:155 (1987)). For immunofluorescence, cells were replated at a density of 100,000 cells per 60-mm petri dish on poly-L-lysine coated glass coverslips and grown for 24 hours in 0.5 ml of medium to allow the cells to attach. The presence of glial fibrillary acidic protein (GFAP) was detected by immunofluorescent staining of formaldehyde fixed cells using a 1:10 dilution of rabbit IgG1 antibody specific for human GFAP. Primary GFAP-specific antibody was added to the coverslips for 30 minutes at room temperature in phosphate buffered saline and 10% goat serum. […] Fluorescence microscopy scored the cells used in the metabolic experiments as 95% pure astrocytes. […]
Intracellular APP protein synthesis was determined in primary astrocytes after plating cells in equal numbers into 8 microtiter wells prior to each treatment (1×10^5 cells per well in 96 well dishes). […]

ACT-mRNA = assay: Northern blot of ACT-mRNA, astrocytoma cells; format: cell-based, human; conditions: Northern blot, 16 hours stimulation
Description: as §2

APP-mRNA [5] = assay: Northern blot of APP-mRNA, astrocytoma cells; format: cell-based, human; conditions: average of four Northern blot experiments
Description: as §2

interleukin-1α [IL-1α]
enhanced rate of ferritin-H subunit synthesis [1]: 5 fold | APP-mRNA levels (Northern blot, densitometry) (APP-mRNA [2]): unchanged | enhanced rate of L-ferritin synthesis [3]: 2 fold | increase in the synthesis of intracellular APP [4]: 4 fold | ACT mRNA transcriptional change (ACT-mRNA): large transcriptional increase

interleukin-1β [IL-1β]
enhanced rate of ferritin-H subunit synthesis [1]: 5 fold | increase in steady-state levels of APP-mRNAs standardized to GAPDH-mRNA (APP-mRNA [5]): 30% | enhanced rate of L-ferritin synthesis [3]: 2 fold | increase in the synthesis of intracellular APP [4]: 3 fold | ACT mRNA transcriptional change (ACT-mRNA): large transcriptional increase
